# Test results published in ChEMBL document CHEMBL2046399, “Effect of C-ring modifications on the cytotoxicity of spirostan saponins and related glycosides” (Bioorg Med Chem, 2012).
# Activity calls are given as the source filed them. The calls are words filed in the database; no cut-off is given here.
# What was measured:
# [1] = test system: HL-60; experiment: Cytotoxicity against human HL60 cells after 72 hrs by MTT assay; format: functional, cell-based; details: HL-60, 72 h
# [2] = Cytotoxicity against human PBMC assessed as cell viability at 30 uM after 24 hrs by MTT assay relative to control; format: cell-based; details: PBMC (peripheral blood mononuclear cells), read-out: Activity
# [3] = test system: HL-60; experiment: Cytotoxicity against human HL60 cells assessed as cell viability at 30 uM after 24 hrs by MTT assay relative to control; format: functional; details: HL-60, 24 h, read-out: Activity
# [4] = test system: HL-60; experiment: Cytotoxicity against human HL60 cells at 3 to 60 uM after 24 hrs by MTT assay; format: functional, cell-based
# [5] = test system: PBMC; experiment: Cytotoxicity against human PBMC at 3 to 60 uM after 24 hrs by MTT assay; format: cell-based
# [6] = Cytotoxicity against human PBMC assessed as cell viability at 10 uM after 24 hrs by MTT assay relative to control; format: cell-based; details: PBMC (peripheral blood mononuclear cells), read-out: Activity
# [7] = test system: HL-60; experiment: Cytotoxicity against human HL60 cells assessed as cell viability at 10 uM after 24 hrs by MTT assay relative to control; format: functional; details: HL-60, 24 h, read-out: Activity
Structure (SMILES),IC50 [1] [µM],Activity [4],Activity [5],other results
CO[C@H]1C[C@H]2[C@@H](CC[C@H]3C[C@@H](O[C@@H]4O[C@H](COC(=O)C(C)(C)C)[C@@H](O)[C@H](OC(=O)C(C)(C)C)[C@H]4O)CC[C@@]32C)[C@@H]2C[C@@H]3O[C@]4(CC[C@@H](C)CO4)[C@@H](C)[C@@H]3[C@@]12C,21.5,,,
C=C1C[C@H]2[C@@H](CC[C@H]3C[C@@H](O[C@@H]4O[C@H](CO)[C@@H](O[C@@H]5O[C@@H](C)[C@H](O)[C@@H](O)[C@H]5O)[C@H](O)[C@H]4O[C@@H]4O[C@@H](C)[C@H](O)[C@@H](O)[C@H]4O)CC[C@@]32C)[C@@H]2C[C@@H]3O[C@]4(CC[C@@H](C)CO4)[C@@H](C)[C@@H]3[C@@]12C,9.7,,,"viability at 24 h, 30 µM [2]: 64.2%; viability at 30 µM [3]: 23%"
C[C@@H]1CC[C@@]2(OC1)O[C@H]1C[C@@H]([C@@H]3CC[C@H]4C[C@@H](O[C@@H]5O[C@H](CO)[C@@H](O[C@@H]6O[C@@H](C)[C@H](O)[C@@H](O)[C@H]6O)[C@H](O)[C@H]5O[C@@H]5O[C@@H](C)[C@H](O)[C@@H](O)[C@H]5O)CC[C@]4(C)[C@H]3CC(=O)O)[C@](C)(O)[C@H]1[C@@H]2C,> 100,,,
C[C@@H]1CC[C@@]2(OC1)O[C@H]1C[C@H]3[C@@H]4CC[C@H]5C[C@@H](O[C@@H]6O[C@H](COC(=O)C(C)(C)C)[C@@H](O)[C@H](OC(=O)C(C)(C)C)[C@H]6O)CC[C@]5(C)[C@H]4CC(=O)O[C@]3(C)[C@H]1[C@@H]2C,9.9,Active,Toxic,
C[C@@H]1CC[C@@]2(OC1)O[C@H]1C[C@H]3[C@@H]4CC[C@H]5C[C@@H](O[C@@H]6O[C@H](COC(=O)C(C)(C)C)[C@@H](O)[C@H](OC(=O)C(C)(C)C)[C@H]6O)CC[C@]5(C)[C@H]4CC[C@]3(C)[C@H]1[C@@H]2C,8.9,Active,Toxic,
C=C1C[C@H]2[C@@H](CC[C@H]3C[C@@H](O[C@@H]4O[C@H](COC(=O)C(C)(C)C)[C@@H](O)[C@H](OC(=O)C(C)(C)C)[C@H]4O)CC[C@@]32C)[C@@H]2C[C@@H]3O[C@]4(CC[C@@H](C)CO4)[C@@H](C)[C@@H]3[C@@]12C,15.7,Active,Toxic,
CO[C@H]1C[C@H]2[C@@H](CC[C@H]3C[C@@H](O[C@@H]4O[C@H](CO)[C@@H](O[C@@H]5O[C@@H](C)[C@H](O)[C@@H](O)[C@H]5O)[C@H](O)[C@H]4O[C@@H]4O[C@@H](C)[C@H](O)[C@@H](O)[C@H]4O)CC[C@@]32C)[C@@H]2C[C@@H]3O[C@]4(CC[C@@H](C)CO4)[C@@H](C)[C@@H]3[C@@]12C,31.5,,,
CO[C@@H]1C[C@H]2[C@@H](CC[C@H]3C[C@@H](O[C@@H]4O[C@H](COC(=O)C(C)(C)C)[C@@H](O)[C@H](OC(=O)C(C)(C)C)[C@H]4O)CC[C@@]32C)[C@@H]2C[C@@H]3O[C@]4(CC[C@@H](C)CO4)[C@@H](C)[C@@H]3[C@@]12C,19.2,Active,Toxic,
C[C@@H]1CC[C@@]2(OC1)O[C@H]1C[C@H]3[C@@H]4CC[C@H]5C[C@@H](O[C@@H]6O[C@H](COC(=O)C(C)(C)C)[C@@H](O)[C@H](OC(=O)C(C)(C)C)[C@H]6O)CC[C@]5(C)C4=CC(=O)[C@]3(C)[C@H]1[C@@H]2C,5.9,,,
C[C@@H]1CC[C@@]2(OC1)O[C@H]1C[C@H]3[C@@H]4CC[C@H]5C[C@@H](O[C@@H]6O[C@H](CO)[C@@H](O[C@@H]7O[C@@H](C)[C@H](O)[C@@H](O)[C@H]7O)[C@H](O)[C@H]6O[C@@H]6O[C@@H](C)[C@H](O)[C@@H](O)[C@H]6O)CC[C@]5(C)C4=CC(=O)[C@]3(C)[C@H]1[C@@H]2C,30.4,,,
CO[C@@H]1C[C@H]2[C@@H](CC[C@H]3C[C@@H](O[C@@H]4O[C@H](CO)[C@@H](O[C@@H]5O[C@@H](C)[C@H](O)[C@@H](O)[C@H]5O)[C@H](O)[C@H]4O[C@@H]4O[C@@H](C)[C@H](O)[C@@H](O)[C@H]4O)CC[C@@]32C)[C@@H]2C[C@@H]3O[C@]4(CC[C@@H](C)CO4)[C@@H](C)[C@@H]3[C@@]12C,21.8,,,
C[C@@H]1CC[C@@]2(OC1)O[C@H]1C[C@H]3[C@@H]4CC[C@H]5C[C@@H](O[C@@H]6O[C@H](CO)[C@@H](O[C@@H]7O[C@@H](C)[C@H](O)[C@@H](O)[C@H]7O)[C@H](O)[C@H]6O[C@@H]6O[C@@H](C)[C@H](O)[C@@H](O)[C@H]6O)CC[C@]5(C)[C@H]4CC[C@]3(C)[C@H]1[C@@H]2C,2.6,,,"viability at 24 h, 10 µM [6]: 45%; viability at 10 µM [7]: 17%"
